Experiments:
Assay type in all cases: functional
Human alphaherpesvirus 1 [1] = experiment: Antiviral activity against HSV1 H29S in african green monkey Vero cells assessed as log reduction in viral titers after 0.001 multiple round of replication at 12.5 ug/ml after 72 hrs
Human alphaherpesvirus 1 [2] = experiment: Antiviral activity against HSV1 H29S in african green monkey Vero cells assessed as log reduction in viral titers after 1 multiple round of replication at 6.25 ug/ml after 72 hrs
Human alphaherpesvirus 1 [3] = experiment: Antiviral activity against HSV1 H29S in african green monkey Vero cells assessed as log reduction in viral titers after 1 multiple round of replication at 12.5 ug/ml after 72 hrs
Human alphaherpesvirus 1 [4] = experiment: Antiviral activity against HSV1 H29S in african green monkey Vero cells assessed as log reduction in viral titers after 0.001 multiple round of replication at 50 ug/ml after 72 hrs
Human alphaherpesvirus 1 [5] = experiment: Antiviral activity against HSV1 H29S in african green monkey Vero cells assessed as log reduction in viral titers after 0.001 multiple round of replication at 25 ug/ml after 72 hrs
Human alphaherpesvirus 1 [6] = experiment: Antiviral activity against HSV1 H29S in african green monkey Vero cells assessed as log reduction in viral titers after 1 multiple round of replication at 50 ug/ml after 72 hrs
Human alphaherpesvirus 1 [7] = experiment: Antiviral activity against HSV1 H29S in african green monkey Vero cells assessed as log reduction in viral titers after 1 multiple round of replication at 25 ug/ml after 72 hrs
Human alphaherpesvirus 1 [8] = experiment: Antiviral activity against HSV1 H29S in african green monkey Vero cells assessed as reduction in viral DNA synthesis after 1 multiple round of replication at 60 ug/ml after 18 hrs by agarose gel electrophoresis relative to control
Human alphaherpesvirus 1 [9] = experiment: Antiviral activity against HSV1 H29S in african green monkey Vero cells assessed as reduction in viral DNA synthesis after 1 multiple round of replication at 30 ug/ml after 18 hrs by agarose gel electrophoresis relative to control
Human alphaherpesvirus 1 [10] = experiment: Antiviral activity against HSV1 H29S in african green monkey Vero cells assessed as log reduction in viral titers after 0.001 multiple round of replication at 6.25 ug/ml after 72 hrs
Influenza A virus = experiment: Antiviral activity against influenza A virus Hong Kong assessed as reduction in viral titers of reproduction at 100 ug/ml

CC(C)=CCOC(=O)/C=C/c1ccc(O)c(O)c1 (stereo in doubt; form 1) [PRENYL CAFFEATE]
Activity (Human alphaherpesvirus 1 [1]): 1.1 | Activity (Human alphaherpesvirus 1 [2]): 1 | Activity (Human alphaherpesvirus 1 [3]): 1.5 | Activity (Human alphaherpesvirus 1 [4]): 3.1 | Activity (Human alphaherpesvirus 1 [5]): 2 | Activity (Human alphaherpesvirus 1 [6]): 2.5 | Activity (Human alphaherpesvirus 1 [7]): 2.5

CC(C)=CCOC(=O)/C=C/c1ccc(O)c(O)c1 (stereo in doubt; form 2) [PRENYL CAFFEATE]
fold change (FC) (Human alphaherpesvirus 1 [8]): 32 | Activity (Human alphaherpesvirus 1 [1]): 1.25 | fold change (FC) (Human alphaherpesvirus 1 [9]): 8 | Activity (Human alphaherpesvirus 1 [2]): 1.75 | Activity (Human alphaherpesvirus 1 [3]): 2.5 | Activity (Human alphaherpesvirus 1 [4]): 3.6 | Activity (Human alphaherpesvirus 1 [10]): 0.6 | Activity (Human alphaherpesvirus 1 [5]): 3.25 | Activity (Human alphaherpesvirus 1 [6]): 2.8 | Activity (Human alphaherpesvirus 1 [7]): 2.8

Nc1nc2c(ncn2COCCO)c(=O)[nH]1 [ACYCLOVIR]
Activity (Human alphaherpesvirus 1 [1]): 3 | Activity (Human alphaherpesvirus 1 [4]): 3.25 | Activity (Human alphaherpesvirus 1 [10]): 2 | Activity (Human alphaherpesvirus 1 [5]): 3

COc1cc(/C=C/C(=O)OCCC(C)C)ccc1O [ISOPENTYL FERULATE]
Selectivity Index (Influenza A virus): 8

Reference: ChEMBL document CHEMBL1149068, “Comparison of the anti-herpes simplex virus activities of propolis and 3-methyl-but-2-enyl caffeate” (1994)
